“And” between values parts separate entries of the source, which are not always exact repeats. Equal entries are not always repeated. Inconclusive results and toxic doses are left out.

Drawing on PubChem BioAssay AID328 (DTP/NCI, 2004), this text covers T/C for 20 compounds.

In the test the test system is BDF1 mice, P388 leukemia ip, median survival T/C. The test can be described thus: NCI In Vivo Anticancer Drug Screen. Data for tumor model P388 Leukemia (intraperitoneal) in B6D2F1 (BDF1) mice. The conditions noted are these: endpoint: median survival time, higher = longer survival. The essentials:
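Vehicle-dosed animals serve as the reference; survival of compound-dosed, tumour-implanted mice is divided by it.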

[1] abbreviates: dose: 12.5 mg/kg/injection, schedule: Q01DX009 (ip), vehicle: saline.
Where [2] appears, read: dose: 25.0 mg/kg/injection, schedule: Q01DX009 (ip), vehicle: saline.
The mark [3] stands for this setting: dose: 100.0 mg/kg/injection, schedule: Q01DX009 (ip), vehicle: Klucel (hydroxypropylcellulose) (HPC).
[4] abbreviates: dose: 200.0 mg/kg/injection, schedule: Q01DX009 (ip), vehicle: Klucel (hydroxypropylcellulose) (HPC).
Setting [5] is: dose: 50.0 mg/kg/injection, schedule: Q01DX009 (ip), vehicle: saline with Tween-80.
Setting [6] is: dose: 100.0 mg/kg/injection, schedule: Q01DX009 (ip), vehicle: saline with Tween-80.
The mark [7] stands for this setting: dose: 200.0 mg/kg/injection, schedule: Q01DX009 (ip), vehicle: saline with Tween-80.
The mark [8] stands for this setting: dose: 100.0 mg/kg/injection, schedule: Q04DX003 (ip), vehicle: Klucel (hydroxypropylcellulose) (HPC).
[9] abbreviates: dose: 200.0 mg/kg/injection, schedule: Q04DX003 (ip), vehicle: Klucel (hydroxypropylcellulose) (HPC).
The mark [10] stands for this setting: dose: 400.0 mg/kg/injection, schedule: Q01DX009 (ip), vehicle: Klucel (hydroxypropylcellulose) (HPC).
[11] abbreviates: dose: 400.0 mg/kg/injection, schedule: Q04DX003 (ip), vehicle: Klucel (hydroxypropylcellulose) (HPC).
Setting [12] is: dose: 50.0 mg/kg/injection, schedule: Q01DX009 (ip), vehicle: saline.
[13] abbreviates: dose: 25.0 mg/kg/injection, schedule: Q04DX003 (ip), vehicle: saline.
Setting [14] is: dose: 50.0 mg/kg/injection, schedule: Q04DX003 (ip), vehicle: saline.
[15] abbreviates: dose: 100.0 mg/kg/injection, schedule: Q04DX003 (ip), vehicle: saline.
Where [16] appears, read: dose: 200.0 mg/kg/injection, schedule: Q04DX003 (ip), vehicle: saline.
[17] abbreviates: dose: 3.13 mg/kg/injection, schedule: Q01DX009 (ip), vehicle: Klucel (hydroxypropylcellulose) (HPC).
[18] abbreviates: dose: 6.25 mg/kg/injection, schedule: Q01DX009 (ip), vehicle: Klucel (hydroxypropylcellulose) (HPC).
Where [19] appears, read: dose: 50.0 mg/kg/injection, schedule: Q04DX003 (ip), vehicle: saline with Tween-80.
Where [20] appears, read: dose: 100.0 mg/kg/injection, schedule: Q04DX003 (ip), vehicle: saline with Tween-80.
The mark [21] stands for this setting: dose: 200.0 mg/kg/injection, schedule: Q04DX003 (ip), vehicle: saline with Tween-80.

For `CC(=O)c1ccc(Oc2ccc(/C(C)=N\N=C(N)N)cc2)cc1`, the T/C was 111 % of control (dose: 6.25 mg/kg/injection, schedule: Q01DX009 (ip), vehicle: saline); 112 % of control and 117 % of control under setting [1]; 116 % of control (dose: 16.0 mg/kg/injection, schedule: Q01DX009 (ip), vehicle: saline); 110 % of control under setting [2].
On to `S=C(NC1CCCCC1)NC1CCCCC1`, for which the T/C was 113 % of control (dose: 50.0 mg/kg/injection, schedule: Q01DX009 (ip), vehicle: Klucel (hydroxypropylcellulose) (HPC)); 109 % of control (dose: 100.0 mg/kg/injection, schedule: Q01DX001 (ip), vehicle: Klucel (hydroxypropylcellulose) (HPC)); 86 % of control under setting [3]; 113 % of control (dose: 200.0 mg/kg/injection, schedule: Q01DX001 (ip), vehicle: Klucel (hydroxypropylcellulose) (HPC)); 100 % of control under setting [4]; 100 % of control (dose: 400.0 mg/kg/injection, schedule: Q01DX001 (ip), vehicle: Klucel (hydroxypropylcellulose) (HPC)).
Take `C=CCN(CC=C)C(=O)CCN1CC1`: the T/C (dose: 1.25 mg/kg/injection, schedule: Q01DX009 (ip), vehicle: saline) was 95 % of control; the T/C (dose: 2.5 mg/kg/injection, schedule: Q01DX009 (ip), vehicle: saline) is 100 % of control; the T/C (dose: 5.0 mg/kg/injection, schedule: Q01DX009 (ip), vehicle: saline) was 112 % of control.
With `CN(C)c1ccc(/C=C\c2ccnc3ccc(-c4ccccc4)cc23)cc1`, the T/C runs as follows: under setting [5], 94 % of control; under setting [6], 94 % of control; under setting [7], 94 % of control.
For the compound `CCOC(=O)C(C#N)(CC)C1=CCCCC1` (stereo not given), the T/C under setting [3] is 108 % of control; the T/C under setting [8] was 109 % of control; the T/C under setting [4] is 100 % of control; the T/C under setting [9] is 100 % of control; the T/C under setting [10] was 104 % of control; the T/C under setting [11] was 122 % of control.
Take `CN(C)C/C=C(/c1ccc(Br)cc1)c1cccnc1`: the T/C by setting is: under setting [1], 89 % of control; under setting [2], 103 % of control; under setting [12], 97 % of control.
For the compound `COc1cc2cc(c1Cl)N(C)C(=O)CC(OC(=O)C(C)C)C1(C)OC1C(C)C1CC(O)(NC(=O)O1)C(OC)/C=C/C=C(/C)C2OC(C)=O` (stereo not given), the T/C runs as follows: (dose: 1.6 micrograms/kg/injection, schedule: Q01DX009 (ip), vehicle: saline + alcohol) 162 % of control; (dose: 3.1 micrograms/kg/injection, schedule: Q01DX009 (ip), vehicle: saline + alcohol) 150 % of control; (dose: 6.2 micrograms/kg/injection, schedule: Q01DX009 (ip), vehicle: saline + alcohol) 166 % of control; (dose: 12.5 micrograms/kg/injection, schedule: Q01DX009 (ip), vehicle: saline + alcohol) 179 % of control; (dose: 25.0 micrograms/kg/injection, schedule: Q01DX009 (ip), vehicle: saline + alcohol) 170 % of control.
As to `Cc1nc2ccccc2nc1CC(=O)c1ccccc1`, the T/C runs as follows: under setting [5], 112 % of control; under setting [6], 104 % of control; under setting [7], 99 % of control.
Regarding `CC1(c2cccs2)C(=O)N(Cl)C(=O)N1Cl` (stereo not given), the T/C was 100 % of control (dose: 12.5 mg/kg/injection, schedule: Q04DX003 (ip), vehicle: saline); 100 % of control under setting [13]; 122 % of control under setting [12]; 118 % of control under setting [14]; 119 % of control (dose: 100.0 mg/kg/injection, schedule: Q01DX009 (ip), vehicle: saline); 107 % of control and 109 % of control and 118 % of control under setting [15]. Further, the T/C by setting is: (dose: 200.0 mg/kg/injection, schedule: Q01DX009 (ip), vehicle: saline) 120 % of control; under setting [16], 118 % of control.
With `CCCCOc1ccc(OCCCCCCCCCC[N+](C)(C)C)cc1`, the T/C reads like this: under setting [17], 112 % of control; under setting [18], 106 % of control; (dose: 12.5 mg/kg/injection, schedule: Q01DX009 (ip), vehicle: Klucel (hydroxypropylcellulose) (HPC)) 105 % of control.
Regarding `CN(C)c1ccc(C=Nc2ccc3c(c2)/C(=C/c2ccc(N(C)C)cc2)c2ccccc2-3)cc1`, the T/C is, setting by setting: (dose: 25.0 mg/kg/injection, schedule: Q04DX003 (ip), vehicle: saline with Tween-80) 116 % of control; under setting [19], 122 % of control; under setting [20], 116 % of control; under setting [21], 121 % of control.
With `NC1=NC(=S)C2N=C(N=Nc3ccc(C(=O)NC(CCC(=O)O)C(=O)O)cc3)N=C2N1` (stereo not given), the T/C (dose: 1.56 mg/kg/injection, schedule: Q01DX009 (ip), vehicle: Klucel (hydroxypropylcellulose) (HPC)) is 120 % of control; the T/C under setting [17] was 91 % of control; the T/C under setting [18] was 87 % of control; the T/C (dose: 25.0 mg/kg/injection, schedule: Q04DX003 (ip), vehicle: Klucel (hydroxypropylcellulose) (HPC)) was 120 % of control; the T/C (dose: 50.0 mg/kg/injection, schedule: Q04DX003 (ip), vehicle: Klucel (hydroxypropylcellulose) (HPC)) is 112 % of control.
For the compound `CCCCCCCCCCCCCC(=O)CC`, the T/C is 91 % of control (dose: 85.0 mg/kg/injection, schedule: Q04DX003 (ip), vehicle: saline with Tween-80); 91 % of control (dose: 135.0 mg/kg/injection, schedule: Q04DX003 (ip), vehicle: saline with Tween-80); 87 % of control under setting [21].
As for `CCOC(=O)c1cnn(C(N)=S)c1N`, the T/C is, setting by setting: under setting [5], 90 % of control; under setting [19], 104 % of control; (dose: 66.0 mg/kg/injection, schedule: Q04DX003 (ip), vehicle: saline with Tween-80) 104 % of control; under setting [20], 90 % of control and 104 % of control; (dose: 150.0 mg/kg/injection, schedule: Q04DX003 (ip), vehicle: saline with Tween-80) 90 % of control; under setting [21], 100 % of control.
On to `CN(C)P(N)(=S)N(C)C`, for which the T/C is 96 % of control under setting [5], 91 % of control under setting [6] and 96 % of control under setting [7].
Turning to `CSc1ncnc2c1ncn2C1OC(CO)C(O)C1O` (stereo not given), the T/C by setting is: (dose: 4.0 mg/kg/injection, schedule: Q01DX010 (ip), vehicle: saline) 113 % of control; (dose: 8.0 mg/kg/injection, schedule: Q01DX010 (ip), vehicle: saline) 122 % of control; (dose: 32.0 mg/kg/injection, schedule: Q01DX010 (ip), vehicle: saline) 118 % of control.
Consider `O=C1OC(=O)C2C1C1(Cl)C(Cl)=C(Cl)C2(Cl)C2C(=O)OC(=O)C21` (stereo not given), for which the T/C under setting [15] is 91 % of control; the T/C under setting [16] is 108 % of control; the T/C (dose: 400.0 mg/kg/injection, schedule: Q04DX003 (ip), vehicle: saline) is 104 % of control.
Regarding `CC(=O)OCCCc1ccccc1`, the T/C reads like this: under setting [3], 109 % of control; under setting [8], 110 % of control; under setting [4], 104 % of control; under setting [9], 100 % of control; under setting [10], 95 % of control; under setting [11], 110 % of control.
Consider `C[N+](C)(C)CCOC(=O)c1ccccc1`, for which the T/C was 109 % of control under setting [6]; 117 % of control under setting [7]; 102 % of control (dose: 400.0 mg/kg/injection, schedule: Q01DX009 (ip), vehicle: saline with Tween-80).
Turning to `[NH-]C(Cc1ccc(O)cc1)C(=O)O.[NH-]C(Cc1ccc(O)cc1)C(=O)O.[Ni+2]` (stereo not given), the T/C runs as follows: (dose: 2.0 mg/kg/injection, schedule: Q01DX009 (ip), vehicle: saline) 111 % of control; (dose: 4.0 mg/kg/injection, schedule: Q01DX009 (ip), vehicle: saline) 107 % of control; (dose: 8.0 mg/kg/injection, schedule: Q01DX009 (ip), vehicle: saline) 121 % of control; under setting [13], 112 % of control; under setting [14], 114 % of control.
